In US20260274895A1, “DE NOVO DESIGNED MEMBRANE-TRAVERSING AND ORALLY BIOAVAILABLE MACROCYCLES” (UNIVERSITY OF WASHINGTON, priority 2022, published 2026):
Where “and” joins values, the source holds several entries; their conditions need not be identical. Equal entries are not always repeated. Where a SMILES comes first, the peptide text is derived from it. [ ]: non-standard residue; d: D form. NMeL = CN[C@@H](CC(C)C)C(=O)O; dNMeL = CN[C@H](CC(C)C)C(=O)O; NMeV = CN[C@H](C(=O)O)C(C)C; NMeA = CN[C@@H](C)C(=O)O; dNMeA = CN[C@H](C)C(=O)O

How the values were obtained:
[1] = PAMPA, PAMPA_Papp_Avg (apparent permeability)
[2] = Pharmacokinetics of D10.1 after PO, SQ and IV dosing in mice
[3] = PAMPA
[4] = PO 12.2 mg/kg, individual mice, 12.2 mg/kg
[5] = female, Balb/C, mouse, plasma, po, 12.2 mg/kg
[6] = female, Balb/C, mouse, plasma, sc, 12.2 mg/kg

## CC(C)[C@@H]1C(=O)N[C@@H](Cc2ccccc2)C(=O)N2CCC[C@H]2C(=O)N(C)[C@H](Cc2ccccc2)C(=O)N[C@H](C)C(=O)N2CCC[C@H]2C(=O)N1C (single isomer, unassigned) [Design D6.8.p1, *faP*vFP]
[1]
  Papp: 3.47 ×10⁻⁶ cm/s

## CC(C)C[C@H]1C(=O)N2CCC[C@@H]2C(=O)N[C@@H](Cc2ccccc2)C(=O)N2CCC[C@H]2C(=O)N[C@H](C(C)C)C(=O)N[C@H](Cc2ccccc2)C(=O)N1C (single isomer, unassigned) [Design D6.9.p1, vf*LpFP]
[1]
  Papp: 5.29 ×10⁻⁶ cm/s

## CC(C)C[C@H]1NC(=O)[C@H]2CCCN2C(=O)[C@@H]2CCCN2C(=O)[C@@H](Cc2ccccc2)NC(=O)[C@@H](C(C)C)NC(=O)[C@H](CC(C)C)N(C)C(=O)[C@@H](Cc2ccccc2)NC1=O (single isomer, unassigned) [Design D7.7.p2, Pplf*Lvf]
[1]
  Papp: 9.06 ×10⁻⁶ cm/s

## CC[C@H](C)[C@@H]1NC(=O)[C@H](Cc2ccccc2)NC(=O)[C@H]2CCCN2C(=O)[C@H]([C@@H](C)CC)NC(=O)[C@H](C(C)C)NC(=O)[C@@H](C)NC(=O)[C@H]2CCCN2C1=O (single isomer, unassigned) [Design D7.8.p2, VIpFIpa]
[1]
  Papp: 4.92 ×10⁻⁶ cm/s

## CC(C)C[C@@H]1NC(=O)[C@@H](C(C)C)NC(=O)[C@H](CC(C)C)N(C)C(=O)[C@H]2CCCN2C(=O)[C@@H](C(C)C)NC(=O)[C@H]2CCCN2C(=O)[C@@H](C(C)C)NC(=O)[C@@H](Cc2ccccc2)N(C)C(=O)[C@H](CC(C)C)N(C)C1=O (single isomer, unassigned) [Design D9.8.p2, *LvL*L*fvpvp]
[1]
  Papp: 0.255 ×10⁻⁶ cm/s

## CC[C@H](C)[C@@H]1NC(=O)[C@@H](CC(C)C)NC(=O)[C@H](CC(C)C)N(C)C(=O)[C@H](Cc2ccccc2)NC(=O)CN(C)C(=O)[C@@H]2CCCN2C(=O)[C@H](C(C)C)NC(=O)[C@H](Cc2ccccc2)N(C)C(=O)[C@H]2CCCN2C(=O)[C@H](CC(C)C)NC1=O (single isomer, unassigned) [Design D10.1.p1, lILp*FVP*GF*L]
[1]
  Papp: 3.92 ×10⁻⁶ cm/s

## CC(C)C[C@@H]1NC(=O)[C@H](Cc2ccccc2)NC(=O)[C@@H](CC(C)C)NC(=O)[C@H]2CCCN2C(=O)[C@H](C(C)C)NC(=O)[C@@H](CC(C)C)NC(=O)[C@H]2CCCN2C(=O)[C@@H]2CCCN2C1=O [Design D8.5, FLPplVpl] (cyclo(FLP[dP][dL]V[dP][dL]))
[1]
  Papp: 6.31 ×10⁻⁶ cm/s

## CC[C@H](C)[C@@H]1NC(=O)[C@@H](C)N(C)C(=O)[C@H]2CCCN2C(=O)[C@H]2CCCN2C(=O)[C@H](Cc2ccccc2)NC(=O)[C@@H](CC(C)C)NC(=O)[C@@H](CC(C)C)N(C)C(=O)[C@@H]2CCCN2C1=O [Design D8.17, P*llFpp*aI] (cyclo(F[dP][dP][dNMeA]IP[dNMeL][dL]))
[1]
  Papp: 0.95 ×10⁻⁶ cm/s

## CC(C)C[C@H]1NC(=O)[C@H]2CCCN2C(=O)[C@H](CC(C)C)N(C)C(=O)[C@@H](C)N(C)C(=O)[C@@H](Cc2ccccc2)NC(=O)[C@@H](C(C)C)NC(=O)[C@H]2CCCN2C(=O)[C@@H](CC(C)C)NC1=O [Design D8.19, f*a*Lpllpv] (cyclo([NMeL][dP][dL][dL][dP][dV][dF][dNMeA]))
[1]
  Papp: 0.626 ×10⁻⁶ cm/s

## CC[C@H](C)[C@@H]1NC(=O)[C@H]2CCCN2C(=O)[C@@H]2CCCN2C(=O)[C@@H](C(C)C)NC(=O)[C@@H](C)N(C)C(=O)[C@H](C)N(C)C(=O)[C@@H](CC(C)C)N(C)C(=O)[C@@H](C(C)C)NC1=O [Design D8.26, v*l*A*avPpI] (cyclo(I[dV][dNMeL][NMeA][dNMeA][dV]P[dP]))
[1]
  Papp: 0.544 ×10⁻⁶ cm/s

## CC[C@H](C)[C@@H]1NC(=O)[C@H](CC(C)C)N(C)C(=O)[C@H]2CCCN2C(=O)[C@H]2CCCN2C(=O)[C@H](Cc2ccccc2)NC(=O)[C@@H](CC(C)C)NC(=O)[C@H]2CCCN2C(=O)[C@@H]2CCCN2C1=O [Design D8.27, Fpp*LIPpl] (cyclo(F[dP][dP][NMeL]IP[dP][dL]))
[1]
  Papp: 0.315 ×10⁻⁶ cm/s

## CSCC[C@@H]1NC(=O)[C@@H]2CCCN2C(=O)[C@@H](C(C)C)NC(=O)[C@@H](C)N(C)C(=O)[C@@H](CC(C)C)NC(=O)[C@@H](CC(C)C)NC(=O)[C@@H]2CCCN2C(=O)[C@H]2CCCN2C1=O [Design D8.29, MpPll*avP] (cyclo([dL][dL][dNMeA][dV]PM[dP]P))
[1]
  Papp: 0.236 ×10⁻⁶ cm/s

## CC[C@H](C)[C@@H]1NC(=O)[C@@H](CC(C)C)NC(=O)[C@H](CC(C)C)N(C)C(=O)[C@H](Cc2ccccc2)NC(=O)CN(C)C(=O)[C@@H]2CCCN2C(=O)[C@H](C(C)C)NC(=O)[C@H](Cc2ccccc2)N(C)C(=O)[C@H]2CCCN2C(=O)[C@H](CC(C)C)NC1=O [Design D10.1, lILp*FVP*GF*L]
[2]; IV ([…] per Table 12), mean ±
  Half-life T1/2: 1.123 ± 0.113 h
  Volume of distribution @ steady state VSS: 0.25 ± 0.08 L/kg
  Volume of distribution during elimination phase VZ: 0.32 ± 0.07 L/kg
[2]; PO 12.2 mg/kg, 15 min, AVG
  Plasma level: 2.58 µM
[2]; PO 12.2 mg/kg, 15 min, individual mice, 12.2 mg/kg
  Plasma level: 2.22 µM and 3.26 µM and 2.26 µM
[2]; PO 12.2 mg/kg, 30 min, AVG
  Plasma level: 2.92 µM
[2]; PO 12.2 mg/kg, 30 min, individual mice, 12.2 mg/kg
  Plasma level: 2.49 µM and 3.64 µM and 2.64 µM
[2]; PO 12.2 mg/kg, 60 min, AVG
  Plasma level: 1.78 µM
[2]; PO 12.2 mg/kg, 60 min, individual mice, 12.2 mg/kg
  Plasma level: 1.57 µM and 2.14 µM and 1.64 µM
[2]; PO 12.2 mg/kg, 120 min, AVG
  Plasma level: 0.72 µM
[2]; PO 12.2 mg/kg, 120 min, individual mice, 12.2 mg/kg
  Plasma level: 0.54 µM and 0.8 µM and 0.81 µM
[2]; PO 12.2 mg/kg, 240 min, AVG
  Plasma level: 0.16 µM
[2]; PO 12.2 mg/kg, 240 min, individual mice, 12.2 mg/kg
  Plasma level: 0.13 µM and 0.18 µM and 0.17 µM
[2]; PO 12.2 mg/kg, 360 min, AVG
  Plasma level: 0.07 µM
[2]; PO 12.2 mg/kg, 360 min, individual mice, 12.2 mg/kg
  Plasma level: 0 μM and 0.1 μM (2×)
[2]; PO 12.2 mg/kg, 1440 min, AVG
  Plasma level: 0 µM
[2]; PO 12.2 mg/kg, 1440 min, individual mice
  Plasma level: 0 µM
[2]; PO 12.2 mg/kg, AVG
  AUC0-t: 270.4 µmol·min/L
  AUC0-∞: 279.94 µmol·min/L
  CI/F: 0.000785 L/min
  Cmax: 2920 nM
[2]; PO 12.2 mg/kg, individual mice
  Tmax: 0.5 h
[2]; [4]
  AUC0-t: 216.96 µmol·min/L and 327.78 µmol·min/L and 266.45 µmol·min/L
  AUC0-∞: 226.62 µmol·min/L and 337.03 µmol·min/L and 276.18 µmol·min/L
  CI/F: 0.000944 L/min and 0.000635 L/min and 0.000775 L/min
  Cmax: 2490 nM and 3640 nM and 2640 nM
  T1/2: 0.8313 h and 1.051 h and 1.132 h
[2]; PO (12.2 mg/kg per Table 10), mean
  Apparent clearance CI/F: 0.000785 L/min
[2]; PO (12.2 mg/kg per Table 10), mean ±
  Half-life T1/2: 1.005 ± 0.156 h
[2]; PO, IV dosing as reference, mean ±
  Oral bioavailability F: 7.48 ± 1.79%
[2]; SQ 12.2 mg/kg, 15 min, AVG
  Plasma level: 2.53 µM
[2]; SQ 12.2 mg/kg, 15 min, individual mice
  Plasma level: 1.39 µM and 2.44 µM and 3.75 µM
[2]; SQ 12.2 mg/kg, 30 min, AVG
  Plasma level: 3.55 µM
[2]; SQ 12.2 mg/kg, 30 min, individual mice
  Plasma level: 1.81 µM and 3.69 µM and 5.15 µM
[2]; SQ 12.2 mg/kg, 60 min, AVG
  Plasma level: 3.93 µM
[2]; SQ 12.2 mg/kg, 60 min, individual mice
  Plasma level: 1.87 µM and 4.88 µM and 5.03 µM
[2]; SQ 12.2 mg/kg, 360 min, AVG
  Plasma level: 2.29 µM
[2]; SQ 12.2 mg/kg, 360 min, individual mice
  Plasma level: 2.4 µM and 2.19 µM
[2]; SQ 12.2 mg/kg, 1440 min, AVG
  Plasma level: 0.01 µM
[2]; SQ 12.2 mg/kg, 1440 min, individual mice
  Plasma level: 0 μM (2×) and 0.03 μM
[2]; SQ 12.2 mg/kg, AVG
  AUC0-t: 1879.54 µmol·min/L
  AUC0-∞: 2867.17 µmol·min/L
  CI/F: 7.96e-05 L/min
  Cmax: 4140 nM
  T1/2: 3.7563 h
  Tmax: 2.5 h
[2]; SQ 12.2 mg/kg, individual mice
  AUC0-t: 730.93 µmol·min/L and 3578.6 µmol·min/L and 1329.09 µmol·min/L
  AUC0-∞: 3585.94 µmol·min/L and 2148.41 µmol·min/L
  CI/F: 5.97e-05 L/min and 9.96e-05 L/min
  Cmax: 2400 nM and 4880 nM and 5150 nM
  T1/2: 3.1823 h and 4.3302 h
[2]; [5]
  level at time molar at 0.25 h: 2580 ± 590 nM
  level at time molar at 0.5 h: 2920 ± 630 nM
  level at time molar at 1 h: 1780 ± 310 nM
  level at time molar at 2 h: 720 ± 150 nM
  level at time molar at 4 h: 160 ± 30 nM
  level at time molar at 6 h: 70 ± 60 nM
[2]; [6]
  CL/F: 0.0796 mL/min
  level at time molar at 0.25 h: 2530 ± 1180 nM
  level at time molar at 0.5 h: 3550 ± 1670 nM
  level at time molar at 1 h: 3930 ± 1780 nM
  level at time molar at 6 h: 2290 ± 150 nM
  level at time molar at 24 h: 10 ± 20 nM
[2]; mouse, in vivo
  bioavailability: 7.5 to 11%
[2]; mouse, in vivo, sc, 12.2 mg/kg
  Cmax: 4140 ± 1510 nM
  Tmax: 2.5 h
  half-life: 3.76 ± 0.812 h

## CC[C@@H](C)[C@H]1NC(=O)[C@@H](CC(C)C)NC(=O)[C@H](C(C)C)NC(=O)[C@@H](CC(C)C)N(C)C(=O)[C@@H]2CCCN2C(=O)[C@H](C)NC(=O)[C@H](CC(C)C)N(C)C(=O)[C@H]2CCCN2C(=O)[C@H](C)N(C)C(=O)[C@@H](CC(C)C)N(C)C(=O)[C@@H]2CCCN2C1=O [Design D11.5, AP*lVliP*l*Ap*L] (cyclo(AP[dNMeL]V[dL][dI]P[dNMeL][NMeA][dP][NMeL]))
[3]
  PAMPA_Papp_Avg (apparent permeability): 2.81 ×10⁻⁶ cm/s

## CC[C@H](C)[C@@H]1NC(=O)[C@H](C(C)C)N(C)C(=O)[C@H]2CCCN2C(=O)[C@H]([C@@H](C)CC)NC(=O)[C@@H](CC(C)C)N(C)C(=O)[C@@H](C)NC(=O)[C@@H]2CCCN2C(=O)[C@H]2CCCN2C(=O)[C@H](CC(C)C)NC(=O)[C@@H](Cc2ccccc2)NC(=O)[C@H](CC(C)C)NC(=O)[C@H]2CCCN2C1=O [Design D12.3, p*VIpLfLpPa*lI] (cyclo([dA][dNMeL]I[dP][NMeV]I[dP]L[dF]L[dP]P))
[3]
  PAMPA_Papp_Avg (apparent permeability): 0.789 ×10⁻⁶ cm/s

## CC(C)C[C@@H]1NC(=O)[C@@H](CC(C)C)N(C)C(=O)[C@@H](CC(C)C)N(C)C(=O)[C@@H](CC(C)C)N(C)C(=O)[C@H](CC(C)C)NC(=O)[C@@H]2CCCN2C(=O)[C@H]2CCCN2C(=O)[C@H](Cc2ccccc2)NC1=O [SEQ ID NO 47, FpPL*l*l*lL] (cyclo(L[dNMeL][dNMeL][dNMeL]LF[dP]P))
[3]
  PAMPA_Papp_Avg (apparent permeability): 1.27 ×10⁻⁶ cm/s
